Test results taken from patent US20040152769A1, “Modified carbamate-containing prodrugs and methods of synthesizing same” (priority 2002, published 2004).
Values after ≈ are worked out from the molar mass of the structure shown. Read-outs that look alike come from different tables or passages of the source.

What was measured:
[1] = Solubility of Dilantin®-PEG3 conjugate in acetonitrile and deionized water (HPLC); format: physicochemical
Procedure: 5,5-diphenylhydrantoin and Dilantin®-PEG3 conjugate prodrug solutions were made in acetonitrile with concentrations of 1.12 mg/mL and 0.8 mg/mL, respectively.
Solutions of 5,5-diphenylhydrantoin and Dilantin®-PEG3 conjugate were then made in deionized water at concentrations of 0.99 mg/mL and 0.93 mg/mL, respectively. These solutions were mixed well by vortexing. 1 mL aliquots were taken and spun by centrifuge at 5000 rpm for five minutes. The resultant supemant was taken and analyzed by HPLC for solution concentration. The concentration of 5,5-diphenylhydrantoin was 4 μg/mL. The concentration of Dilantin®-PEG3 conjugate was 160 μg/mL.

[2] = pH 2.0 stability of prodrugs of the native compound (0.06M phosphate buffer, 37° C., 2 hours, RP-HPLC); settings: for pH 2 Stability: pH 2.0 phosphate buffer, 37° C.; for % Area of Pro-drug / % Area NC: pH 2.0, 37° C., 2 hours, RP-HPLC; for % Area NC: native compound formed
Procedure: The samples were incubated in a water bath at 37° C. for 2 hours. Each sample was then removed from the water bath and vortexed.

[3] = Oral absorption in rats, parent compound in plasma by LC/MS/MS; settings: rat, p.o., result in words; for Oral Absorption: first part of Table 2
Procedure: 100 μL of plasma was extracted with 500 μL of acetonitrile, vortexed and centrifuged. The supernatant was removed, evaporated to dryness, and then reconstituted with 100 μL of 30% methanol. The reconstituted samples were then centrifuged to remove particulates. The supernatant was removed and transferred to HPLC vials for detection and quantitation of the parent compound by LC/MS/MS.

[4] = Rat plasma stability of selected prodrugs (37° C., RP-HPLC); format: in vitro ADME; settings: for % comp. 0′ / % comp. 60′ / % comp. 120′ / % comp. 240′ / % comp. 360′ / % comp. 480′: 37° C., peak area; for % comp. 0′: 0 minutes; for % comp. 60′: 60 minutes; for % comp. 120′: 120 minutes; for % comp. 240′: 240 minutes; for % comp. 360′: 360 minutes; for % comp. 480′: 480 minutes
Procedure: Using 1 mg/mL stock solutions of a prodrug described in Example 6.8 above in acetonitrile, 990 μL of rat plasma was spiked with 10 μL of conjugate. The plasma spikes were incubated at 37° C. 100 μL of each sample at each time-point was removed and the reaction was quenched with 500 μL of acetonitrile. Each sample was vortexed and centrifuged immediately and the resultant supernatant was removed, discarding the pellet. The supernatant was concentrated and reconstituted with 100 μL of 30% acetonitrile. Prior to transferring samples to HPLC vials, the samples were centrifuged for 15 minutes at 14000 rpm at 2° C. to remove particulates. 10 μL of 10 μg/mL standard and 75 μL of reconstituted sample were injected for RP-HPLC analysis.
The stability of the prodrugs was measured by analyzing samples at the following time-points: 0, 60, 120, 240, 360, and 480 minutes. Retention time, peak area, and UV spectrum were measured for each sample and standard. […] A Waters 2690 HPLC was used for sample analysis (column: Delta Pak C18 Guard Column, C18, 5 m, 2.1 mm×50 mm; Collected spectrum: 210-380 nm. Extracted chromatogram: 240 nm; Mobile Phase; 0.1% TFA in Water/0.1% TFA in acetonitrile; flow Rate: 0.5 mL/minute).

[5] = Chemical hydrolysis of Dilantin®-conjugate (PEG-3) at a pH of about 2; format: physicochemical; settings: 0.06M phosphate buffer pH 2.0, 37° C.
Procedure: Aliquots of a stock solution of Dilantin®-PEG3 conjugate in acetonitrile were spiked into 0.06M phosphate buffer, pH 2.0 (2 μl stock solution in 998 μl buffer). The sample was incubated in a water bath at 37° C. At time points one hour apart, a portion of the sample was removed and submitted for immediate analysis by RP-HPLC.

[6] = Stability of Dilantin®-PEG3 conjugate in rat plasma (spike controls, RP-HPLC); format: in vitro ADME
Procedure: Also using a stock solution of Dilantin®-PEG3 conjugate in acetonitrile, the following spike controls were prepared in rat plasma: 1 μg/ml, 750 ng/ml, 500 ng/ml and 250 ng/ml. After vortexing, […] of acetonitrile was added. Each sample was centrifuged immediately and the resultant supernatant was removed and the pellet discarded. The supernatant was concentrated and reconstituted with […] of 30% acetonitrile. […] Samples were submitted for RP-HPLC anaylsis. […] Thus, near complete plasma hydrolysis of the conjugate may occur within 1 minute. Studies were repeated a second day to confirm results.

Q: With `O=C1NC(=O)C(c2ccccc2)(c2ccccc2)N1` [5,5-diphenylhydrantoin, reference compound] as the compound, how does the solubility in acetonitrile [1] read?
A: Its solubility in acetonitrile is 100%.

Q: And the solubility ([1]; water, thermodynamic from solid)?
A: The solubility was 4 µg/mL (≈ 15.9 µM).

Q: For `CCOC(=O)CCOCCOCCOC` [Compound 1], which “pH 2 Stability” value [2] is on record?
A: Its value is “None”.

Q: With `CCOCCOCCOCCC(=O)OCC` [Compound 2] as the compound, how does the “pH 2 Stability” value [2] read?
A: Its value is “None”.

Q: With `CCOC(=O)CCOCCOCCOCCOCCOCCOCCOCCOCCOC` [Compound 3] as the compound, how does the “pH 2 Stability” value [2] read?
A: Its value is “None”.

Q: Which “pH 2 Stability” value [2] does the source give for `CCOC(=O)COCCOCCOC` [Compound 4] here?
A: Its value is “None”.

Q: With `CCOC(=O)OCCOCCOCCOC` [Compound 5] as the compound, how does the “pH 2 Stability” value [2] read?
A: The value was “None”.

Q: With `COCCOCCOCCOC(=O)N(C(=O)NCCCN1CCC(c2cccc(OC)c2)CC1)c1cccc(C2C(C(=O)OC)=C(C)NC(C)=C2C(=O)OC)c1` [Compound 6] as the compound, how does the “Oral Absorption” value [3] read?
A: Its value is “Not Detected”.

Q: What about the “pH 2 Stability” value [2] of the same compound?
A: The value was greater than 2 h.

Q: What does the source list for `COCCOCCOCCOCCOCCOCCOCCOCCOC(=O)N(C(=O)NCCCN1CCC(c2cccc(OC)c2)CC1)c1cccc(C2C(C(=O)OC)=C(C)NC(C)=C2C(=O)OC)c1` [Compound 8]?
A: Oral Absorption [3]: Not Detected; pH 2 Stability [2]: >2 h

Q: For `COC(=O)C1=C(C)NC(C)=C(C(=O)OC)C1c1cccc(N(C(=O)NCCCN2CCC(c3cccc(OC)c3)CC2)C(=O)OC)c1.Cl` [Compound 11], which “pH 2 Stability” value [2] is on record?
A: Its value is greater than 2 h.

Q: Which results are given for `COCCOCCOCCOC(=O)N(C(=O)NCCCN1CCC(c2cccc(OC)c2)CC1)c1cccc(C2C(C(=O)OC)=C(C)NC(C)=C2C(=O)OC)c1.Cl` [Compound 13]?
A: % comp. 0′ ([4]; rat plasma): 99.0%; % comp. 60′ ([4]; rat plasma): 98.0%; % comp. 120′ ([4]; rat plasma): 98.0%; % comp. 240′ ([4]; rat plasma): 97.0%; % comp. 360′ ([4]; rat plasma): 96.0%; % comp. 480′ ([4]; rat plasma): 95.0%; % Area of Pro-drug [2]: 100%; % Area NC [2]: 0%; pH 2 Stability [2]: >2 h

Q: With `CCOC(=O)N(C(=O)NCCCN1CCC(c2cccc(OC)c2)CC1)c1cccc(C2C(C(=O)OC)=C(C)NC(C)=C2C(=O)OC)c1.Cl` [Compound 14] as the compound, how does the “% comp. 0′” value ([4]; rat plasma) read?
A: The value was 98.0%.

Q: What about the “% comp. 60′” value ([4]; rat plasma) of the same compound?
A: The value was 98.0%.

Q: And the “% comp. 120′” value ([4]; rat plasma)?
A: The value was 97.5%.

Q: And the “% comp. 240′” value ([4]; rat plasma)?
A: Its value is 96.5%.

Q: And the “% comp. 360′” value ([4]; rat plasma)?
A: The value was 96.0%.

Q: And the “% comp. 480′” value ([4]; rat plasma)?
A: The value was 95.0%.

Q: And the “pH 2 Stability” value [2]?
A: The value was greater than 2 h.

Q: For `COC(=O)C1=C(C)NC(C)=C(C(=O)OC)C1c1cccc(N(C(=O)NCCCN2CCC(c3cccc(OC)c3)CC2)C(=O)OC(CO)CO)c1.Cl` [Compound 16], which “% comp. 0′” value ([4]; rat plasma) is on record?
A: Its value is 0%.

Q: And the “% comp. 60′” value ([4]; rat plasma)?
A: The value was 0%.

Q: What about the “% comp. 120′” value ([4]; rat plasma) of the same compound?
A: The value was 0%.

Q: What about the “% comp. 240′” value ([4]; rat plasma) of the same compound?
A: The value was 1%.

Q: And the “% comp. 360′” value ([4]; rat plasma)?
A: Its value is 1%.

Q: What about the “% comp. 480′” value ([4]; rat plasma) of the same compound?
A: Its value is 1%.

Q: And the “stability in rat plasma” value ([4]; rat plasma, result in words)?
A: Its value is “unstable”.

Q: And the “prodrug converted to the native compound” value ([4]; within 30 seconds of being introduced to rat plasma)?
A: The value was roughly 100%.

Q: And the “Oral Absorption (Relative AUCs)” value ([3]; second part of Table 2)?
A: Its value is “Minimal”.

Q: With `COCCOCCOCCOCCOC(=O)N(C(=O)NCCCN1CCC(c2cccc(OC)c2)CC1)c1cccc(C2C(C(=O)OC)=C(C)NC(C)=C2C(=O)OC)c1.Cl` [Compound 17] as the compound, how does the “% comp. 0′” value ([4]; rat plasma) read?
A: Its value is 99.7%.

Q: What about the “% comp. 60′” value ([4]; rat plasma) of the same compound?
A: The value was 99.0%.

Q: What about the “% comp. 120′” value ([4]; rat plasma) of the same compound?
A: Its value is 98.5%.

Q: And the “% comp. 240′” value ([4]; rat plasma)?
A: The value was 98.0%.

Q: And the “% comp. 360′” value ([4]; rat plasma)?
A: The value was 97.0%.

Q: And the “% comp. 480′” value ([4]; rat plasma)?
A: The value was 96.0%.

Q: What about the “% Area of Pro-drug” value [2] of the same compound?
A: Its value is 100%.

Q: And the “% Area NC” value [2]?
A: Its value is 0%.

Q: And the “pH 2 Stability” value [2]?
A: The value was greater than 2 h.

Q: Which results are given for `COCCOCCOCCOCCOCCOCCOCCOCCOC(=O)N(C(=O)NCCCN1CCC(c2cccc(OC)c2)CC1)c1cccc(C2C(C(=O)OC)=C(C)NC(C)=C2C(=O)OC)c1.Cl` [Compound 19]?
A: % comp. 0′ ([4]; rat plasma): 97.0%; % comp. 60′ ([4]; rat plasma): 97.0%; % comp. 120′ ([4]; rat plasma): 96.5%; % comp. 240′ ([4]; rat plasma): 96.0%; % comp. 360′ ([4]; rat plasma): 95.3%; % comp. 480′ ([4]; rat plasma): 94.0%; pH 2 Stability [2]: >2 h

Q: Which “% Area of Pro-drug” value [2] does the source give for `COCCOCCOC(=O)N(C(=O)NCCCN1CCC(c2cccc(OC)c2)CC1)c1cccc(C2C(C(=O)OC)=C(C)NC(C)=C2C(=O)OC)c1.Cl` [Compound 21] here?
A: The value was 100%.

Q: And the “% Area NC” value [2]?
A: Its value is 0%.

Q: What about the “pH 2 Stability” value [2] of the same compound?
A: The value was greater than 2 h.

Q: For `COCCOC(=O)N(C(=O)NCCCN1CCC(c2cccc(OC)c2)CC1)c1cccc(C2C(C(=O)OC)=C(C)NC(C)=C2C(=O)OC)c1.Cl` [Compound 22], which “% Area of Pro-drug” value [2] is on record?
A: The value was 100%.

Q: And the “% Area NC” value [2]?
A: The value was 0%.

Q: And the “pH 2 Stability” value [2]?
A: Its value is greater than 2 h.

Q: With `COCCOCCOCCOC(=O)N1C(=O)NC(c2ccccc2)(c2ccccc2)C1=O` [Dilantin®-PEG3 conjugate] as the compound, how does the “Dilantin ® -PEG3 (Remaining), %” value ([5]; time 0 hours) read?
A: The value was 100%.

Q: What about the “Dilantin ® -PEG3 (Remaining), %” value ([5]; time 2 hours) of the same compound?
A: The value was 96.79%.

Q: What about the “Dilantin ® -PEG3 (Remaining), %” value ([5]; time 3 hours) of the same compound?
A: Its value is 94.99%.

Q: What about the “time to near complete plasma hydrolysis of the conjugate” value ([6]; rat plasma) of the same compound?
A: Its value is no more than 1 min.

Q: And the “species found in extracted rat plasma samples” value ([6]; rat plasma spiked at 1 μg/ml, 750, 500 and 250 ng/ml, RP-HPLC)?
A: The value was “only the presence of phenyloin”.

Q: What about the solubility in acetonitrile ([1]; acetonitrile, 1.12 mg/mL (5,5-diphenylhydrantoin) and 0.8 mg/mL (conjugate)) of the same compound?
A: The solubility in acetonitrile was 100%.

Q: What about the “solubility in water compared with native drug” value ([1]; deionized water) of the same compound?
A: Its value is “more soluble in water than the native drug”.

Q: What about the “concentration in supernatant (solubility in water)” value ([1]; deionized water, made at 0.99 mg/mL and 0.93 mg/mL, centrifuged, HPLC) of the same compound?
A: Its value is 160 µg/mL.

Q: Which “pH 2 Stability” value does the source give for `COC(=O)C1=C(C)NC(C)=C(C(=O)OC)C1c1cccc(NC(=O)NCCCN2CCC(c3cccc(OC)c3)CC2)c1` [Native drug, 1,4-Dihydro-[3-[[[[3-[4-(3-methoxyphenyl)-1-piperidinyl]propyl]amino]carbonyl]amino]phenyl]-2,6-dimethyl-3,5-pyridinedicarboxylic acid, dimethyl ester] here?
A: Its value is greater than 2 h.
